According to US20150224089A1, “COMBINATIONS OF IKKi/TBK1 INHIBITORS WITH BETA ADRENERGIC AGONISTS OR SYMPATHETIC NERVOUS SYSTEM ACTIVATORS” (THE REGENTS OF THE UNIVERSITY OF MICHIGAN, priority 2014, published 2015):

Columns and labels:
[1] = system: epididymal adipose tissue; assay: cAMP levels in epididymal WAT after CL-316,243 injection in HFD-fed mice; format: in vivo; details: HFD mice pretreated with amlexanox 4 days; 20 min after CL-316,243 IP injection
Protocol: (§1) (A) Fold increase in serum FFA (left panel) and glycerol (right panel) levels 15 min after CL-316,243 injection in ND- or HFD-fed mice treated with amlexanox or vehicle control for 4 days. (B) Glycerol release from ex vivo epididymal (left panel) and inguinal (right panel) WATs after 1 hr pretreatment with amlexanox or vehicle. CL-316,243 treatment was started at time zero. (C) Immunoblots in inguinal WAT lysates from FIG. 5B after 60 min of CL-316,243 treatment. (D) cAMP levels in epididymal WAT 20 min after CL-316,243 (CL) or saline control injection in HFD-fed mice treated with amlexanox or vehicle control for 4 days. (E) Immunoblots in epididymal WAT 5 min after CL-316,243 or saline control injection in HFD-fed mice treated with amlexanox or vehicle control for 4 days. (F) Relative oxygen comsumption of mice in each treatment group.
To examine whether inhibition of TBK1 and IKKε with amlexanox reverses resistance to catecholamineinduced lipolysis in vivo by increasing stimulation of cAMP production, cAMP levels we measured in epididymal adipose tissue from mice on HFD after CL-316,243 IP injection. Levels of cAMP were increased after CL-316,243 IP injection in mice on HFD pretreated with amlexanox (FIG. 5D).

diet-induced obese mice = assay: Serum FFA and glycerol after CL-316,243 injection in ND- or HFD-fed mice; format: in vivo; details: amlexanox-treated HFD mice compared to vehicle-treated HFD-fed mice; oral gavage 4 days
Protocol: as §1
To test the functional importance of the noncanonical IKKs in maintaining energy balance in vivo, experiments were conducted during development of embodiments of the present invention to investigate whether the administration of a selective inhibitor of IKKε and TBK1, amlexanox, can reverse diet-induced catecholamine resistance in rodentsMice were fed a high fat or normal diet, treated them with amlexanox by oral gavage for 4 days (prior to the point when weight loss is seen), and then gave a single intraperitoneal (IP) injection of the β3-adrenergic agonist CL-316,243. Injection of CL-316,243 stimulated a threefold increase in serum FFA and glycerol levels in both vehicle and amlexanox-treated mice on normal diet (ND).

3T3-L1 adipocytes [2] = assay: Ucp1 gene expression in 3T3-L1 adipocytes; format: cell-based; details: long-term treatment with TNFα
Protocol: (§2) (A) Fold increase in Ucp1 expression in 3T3-L1 adipocytes expressing empty vector, Flag-IKKε, or Flag-IKKε K38A following treatment with or without 10 μM ISO (black bars) or 10 μM CL-316,243 (CL, gray bars) for 4 hr. (B) Glycerol release from 3T3-L1 adipocytes expressing empty vector (white bars), Flag-IKKε (black bars), or Flag-IKKε K38A (gray bars) treated with or without 10 μM ISO or 10 μM CL. (C) Immunoblots of whole cell lysates from FIG. 1B. Results were replicated in triplicate. D.E. stands for dark exposure and L.E. stands for light exposure. (D) Immunoblots of whole cell lysates from 3T3-L1 adipocytes expressing empty vector or Flag-IKKε treated with or without 50 μM FSK for 15 min. (E) cAMP levels from 3T3-L1 adipocytes expressing empty vector, Flag-IKKε, or Flag-IKKε K38A treated with or without 10 μM ISO or 50 μM FSK for 15 min.
Sympathetic activation of adipose tissue is involved in maintaining energy balance by stimulating lipolysis and fat oxidation (Coppack et al., 1994; Langin, 2006; Festuccia et al., 2011; herein incorporated by reference in their entireties). Activation of β-adrenergic signaling by either β-adrenergic agonists or cold exposure in white and brown adipose tissue initiates a cascade of events through cyclic AMP (cAMP), culminating in the transcriptional upregulation of Ucp1, which results in increased proton leak and energy expenditure (Himms-Hagen et al., 2000; Cao et al., 2004; Yehuda-Shnaidman et al., 2010; herein incorporated by reference in their entireties). […] This effect was further analyzed by overexpressing IKKε in 3T3-L1 adipocytes and examining Ucp1 gene expression after treatment with the non-selective β-adrenergic agonist, isoproterenol (ISO), or the β3-adrenergic agonist, CL-316,243. Fold difference in Ucp1 gene expression was calculated by normalization of relative Ucp1 mRNA levels in treated relative to control samples. […] The induction of Ucp1 gene expression in response to ISO or CL-316,243 was blunted when WT IKKε was overexpressed in these cells. […]

3T3-L1 adipocytes [3] = assay: Glycerol release (lipolysis) from 3T3-L1 adipocytes; format: cell-based; details: TNFα for 24 hr, different concentrations; 10 μM ISO or 50 μM FSK
Protocol: as §2
(A) Glycerol release from 3T3-L1 adipocytes treated with or without different concentrations of TNFα as indicated for 24 hr followed by treatment with or without 10 μM ISO or 50 μM FSK. (B) cAMP levels from 3T3-L1 adipocytes treated with or without 100 ng/ml TNFα for 24 hr followed by treatment with or without 10 μM ISO or 50 μM FSK in the presence or absence of pretreatment of 50 μM Amlexanox (Am). (C) cAMP levels from 3T3-L1 adipocytes treated with or without 100 ng/ml TNFα for 24 hr followed by treatment with or without 50 μM FSK in the presence or absence of pretreatment of 1 μM CAY10576 (CAY). (D) Immunoblots of whole cell lysates from 3T3-L1 adipocytes treated with or without different concentrations of TNFα as same as FIG. 2A for 24 hr followed by treatment with or without 10 μM ISO or 50 μM FSK. Results were replicated in multiple experiments. ‘[’ indicates total HSL. ‘n.s.’ represents non-specific band. Arrow indicates CGI-58. (E) Immunoblots of whole cell lysates from 3T3-L1 adipocytes treated with or without 50 ng/ml TNFα or 100 μg/ml poly (I:C) for 24 hr followed by treatment with or without 10 μM ISO for 15 min in the presence or absence of pretreatment with increasing concentrations (0, 10, 50, and 200 μM) of amlexanox for 30 min.
The obesity-dependent increase was modeled in the noncanonical IKKs by overexpressing IKKε in 3T3-L1 adipocytes, followed by assay of glycerol release in response to ISO or CL-316,243. […] Overexpression of TBK1 reduced phosphorylation of HSL in response to isoproterenol or the adenylyl cyclase activator, forskolin (FIG. 1). Identical results were obtained when IKKε was overexpressed in 3T3-L1 adipocytes stimulated with forskolin (FIG. 1D), as detected by western blotting with an anti-phospho-PKA substrate motif antibody. […]

| Compound | cAMP levels in epididymal adipose tissue [1] | fold increase in serum glycerol levels after CL-316,243 (diet-induced obese mice) | induction of Ucp1 gene expression in response to β-adrenergic stimuli (3T3-L1 adipocytes [2]) | glycerol release in response to isoproterenol and forskolin (3T3-L1 adipocytes [3]) |
| --- | --- | --- | --- | --- |
| CC(C)c1ccc2oc3nc(N)c(C(=O)O)cc3c(=O)c2c1 [amlexanox, 2-amino-7-isopropyl-1-azaxanthone-3-carboxylic acid; 2-amino-7-isopropyl-5-oxo-5H-chromeno[2,3-b]pyridine-3-carboxylic acid] | increased | significantly higher | – | – |
| TNFα | – | – | repressed | decreased glycerol release |
